From patent US11135223B2, “Compositions and methods for inhibiting Dkk-1” (YALE UNIVERSITY, priority 2016, dated 2021)

Tested on: CD4 T cells
Test: CD4 T cell activation and differentiation in vitro with Dkk-1 or Wnt3a
Type: cell-based, mice
Conditions: naïve CD4 T cells, Wnt3a 20% v/v, 96 hours
Description: FIG. 5, comprising FIG. 5A through FIG. 5E, depicts results of experiments showing Dkk-1 induces TH2 cell polarization. FIG. 5A depicts lungs harvested for immunohistochemistry of CD3 (dark brown), CD41 (blue) and isotype control antibodies of lungs from Dkk-1^d/d mice and their wildtype littermate controls challenged with HDM extract allergen. Orange arrowheads in the images indicate co-localized CD3 T cells with CD41^+ platelets. FIG. 5B depicts ELISA analysis of Dkk-1 from plasma samples from Dkk-1^d/d mice (n=5) collected 24 hours after challenge with 50 μg HDM. FIG. 5C depicts ELISA analysis of splenic CD4 T cells from 6-8 week-old C57BL/6 mice were activated with anti-CD3 and anti-CD28 antibodies (Act) with or without Dkk-1 (30 ng/ml unless indicated) for 4 days. FIG. 5D depicts flow cytometry analysis of splenic CD4 T cells from 6-8 week-old C57BL/6 mice were activated with anti-CD3 and anti-CD28 antibodies (Act) with or without Dkk-1 (30 ng/ml unless indicated) for 4 days. FIG. 5E depicts ELISA analysis of naïve CD4 T cells stimulated anti-CD3 and anti-CD28 antibodies for 96 hr with or without Dkk-1.
FIG. 6, comprising FIG. 6A through FIG. 6E, depicts results of experiments showing Dkk-1 induces TH2 cytokines in various T cell differentiation conditions. FIG. 6A depicts flow cytometry and ELISA analysis of naïve CD4 T cells were stimulated under TH1 polarization conditions for 96 hours with or without Dkk-1. FIG. 6B depicts flow cytometry and ELISA analysis of naïve CD4 T cells were stimulated under TH2 polarization conditions for 96 hours with or without Dkk-1. FIG. 6C depicts flow cytometry analysis of Foxp3, IL-17A, and IL-10 expression in splenic naïve CD4 T cells isolated and differentiated into iTreg for 5 days with 100 U/ml IL-2 and 1.5 ng/ml TGF-β with or without 30 ng/ml and 3 ng/ml of Dkk-1 treated during the culture. FIG. 6D depicts Gata-3 expression levels of splenic naïve CD4 T cells from 8 week-old C57BL/6 mice treated with Dkk-1 with varying doses of Dkk-1 (50, 30, 7.5 ng/ml) or Wnt3a (20% v/v) for 96 hours in the presence of anti-CD3 and anti-CD28 antibody stimulation. FIG. 6E depicts qPCR results of Tcf7 and Lef1 mRNA harvested from splenic naïve CD4 T cells from 8 week-old C57BL/6 mice stimulated with or without Dkk-1 (30 ng/ml) for 96 hours. All results were statistically non-significant. All experiments are a representative of two to three independent experiments. Student's t-test or one way-ANOVA analysis with Bonferonni's post-hoc test were performed. Small horizontal lines and error bars indicate the mean (±s.e.m.). ***, p<0.0001, **, p<0.005, *, p<0.05.
FIG. 8, comprising FIG. 8A through FIG. 8G, depicts results of experiments showing Dkk-1 induces IL-10 in CD4 T cells via SGK-1 and p38 MAPK. FIG. 8A depicts ELISA analysis of naïve CD4 T cell differentiated into TH2 cells with or without Dkk-1 (30 ng/ml), SGK-1 inhibitor (2 μM) or p38 inhibitor (10 μM) for 96 hours. FIG. 8B depicts flow cytometry analysis of human naïve CD4 T cells (CD4^+CD25^−CD45RA^+) transduced with SGK-1 shRNA and selected with puromycin (0.5 μg/ml) for 48 hours. The selected cells were stimulated with anti-CD3 mAb (OKT3) and anti-CD28 mAb with or without Dkk-1 for 96 hr. For the last 5 hr of culture, stimulation cocktail (PMA/Ionomycin/Brefeldin A/Monensin) was added. FIG. 8C depicts intracellular staining with antibodies recognizing phospho-S6 kinase of splenic CD4^+CD25^− cells from 6 week-old C57BL/6 mice were isolated and activated with anti-CD3 and anti-CD28 mAb (2 μg/ml) with or without Dkk-1 (25 ng/ml) for indicated time points. FIG. 8D depicts intracellular staining with antibodies recognizing phospho-4E-BP1 of splenic CD4^+CD25^− cells from 6 week-old C57BL/6 mice were isolated and activated with anti-CD3 and anti-CD28 mAb (2 μg/ml) with or without Dkk-1 (25 ng/ml) for indicated time points. […]

In the case of Wnt3a, the Gata-3 expression is reported as “induced”.
